Like-named read-outs stand apart in the source and are kept apart here.

The target of one assay is T1, recombinant human PKM2 (Homo sapiens, UniProt P14618).
T1 construct: His (N); purchased R&D Systems
The assay is described as follows: Human PKM2 activation assay (Kinase-Glo Plus luminescent detection of generated ATP). It counts as biochemical. The conditions noted are these: for Emax: read-out: hPKM2 Emax; for EC50: read-out: hPKM2 EC50. The method in brief:
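N-His-tagged recombinant hPKM2 ([…]) with PEP and ADP was incubated with compound for 60 min at 26 °C, shaking, in 50 mM imidazole, 50 mM KCl, 7 mM MgCl2, 0.01% Tween20, 0.05% BSA, pH 7.2. ATP produced was read by Kinase-Glo Plus luminescence after 15 min.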
On the technique in general: In Kinase-Glo more light means more ATP remaining.

The next assay has as its target T2, recombinant human PKLR (Homo sapiens, UniProt P30613).
T2 construct: His (N); purchased R&D Systems
In words: Human PKLR activation assay (Kinase-Glo Plus luminescent detection of generated ATP). It counts as biochemical. The note with it: for EC50: activation of recombinant human PKLR, 4-parameter logistic fit, read-out: hPKLR EC50; for Emax: percentage activation normalised to DMSO vehicle (LOW) and 5 μM TEPP-46 (HIGH) controls, read-out: hPKLR Emax (%). As for the experimental part:
Compound activation of recombinant human PKLR pyruvate kinase activity was determined by biochemical assay. N-terminal His-tagged enzyme was sourced from R&D Systems and its substrates phosphoenolpyruvate (PEP) and ADP from Sigma-Aldrich and 2Bscientific Ltd, respectively. The Kinase-Glo® Plus luminescence assay was from Promega. All other reagents were from Sigma-Aldrich. Test Compounds were prepared as 10 mM DMSO stocks and dilution series prepared in DMSO for direct dilution into Assay Buffer comprising 50 mM imidazole, 50 mM KCl, 7 mM MgCl2, 0.01% Tween20, 0.05% BSA (pH 7.2).
Human PKLR was diluted into Assay Buffer to a final concentration of 5 pM. Enzyme-Assay Buffer mix was dispensed into 384-well shallow-well white-walled plates and Test Compounds added by acoustic dispense (Echo®, Labcyte Inc).
After 60 minutes' incubation on an orbital shaker (300 rpm, 26° C.), enzyme activity was quantified by the luminescent detection of generated ATP. Kinase-Glo® Plus reagent was added to each well and the plates incubated for a further 15 minutes on an orbital shaker in the dark (300 rpm, 26° C.) before luminescence measurement on a plate reader (PHERAstar® FSX, BMG Labtech).
Percentage activation was calculated by normalising […] signals to plate LOW (DMSO vehicle) and HIGH (5 μM TEPP-46) controls. EC50 and Emax values were determined from 4-parameter logistic fits of compound concentration-response curves.

Where [1] appears, read: percentage activation normalised to DMSO vehicle (LOW) and 5 μM TEPP-46 (HIGH).
[2] abbreviates: recombinant human PKM2 activation, 4-parameter logistic fit.

T1 sequence (P14618 2-531 limits assumed): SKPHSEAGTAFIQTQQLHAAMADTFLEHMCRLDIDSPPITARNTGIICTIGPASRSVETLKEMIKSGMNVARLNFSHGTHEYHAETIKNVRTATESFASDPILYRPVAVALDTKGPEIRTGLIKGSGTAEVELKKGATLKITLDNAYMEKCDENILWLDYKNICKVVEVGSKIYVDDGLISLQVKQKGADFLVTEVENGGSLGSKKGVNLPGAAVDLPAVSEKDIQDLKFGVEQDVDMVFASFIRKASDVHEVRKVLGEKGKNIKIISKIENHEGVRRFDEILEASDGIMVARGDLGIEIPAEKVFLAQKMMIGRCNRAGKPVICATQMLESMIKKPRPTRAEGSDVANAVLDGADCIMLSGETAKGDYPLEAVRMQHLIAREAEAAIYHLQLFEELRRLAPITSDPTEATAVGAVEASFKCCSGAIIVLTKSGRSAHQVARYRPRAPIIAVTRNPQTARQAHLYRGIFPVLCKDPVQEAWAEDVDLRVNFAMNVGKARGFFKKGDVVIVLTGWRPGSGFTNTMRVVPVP
T2 sequence (P30613 whole entry): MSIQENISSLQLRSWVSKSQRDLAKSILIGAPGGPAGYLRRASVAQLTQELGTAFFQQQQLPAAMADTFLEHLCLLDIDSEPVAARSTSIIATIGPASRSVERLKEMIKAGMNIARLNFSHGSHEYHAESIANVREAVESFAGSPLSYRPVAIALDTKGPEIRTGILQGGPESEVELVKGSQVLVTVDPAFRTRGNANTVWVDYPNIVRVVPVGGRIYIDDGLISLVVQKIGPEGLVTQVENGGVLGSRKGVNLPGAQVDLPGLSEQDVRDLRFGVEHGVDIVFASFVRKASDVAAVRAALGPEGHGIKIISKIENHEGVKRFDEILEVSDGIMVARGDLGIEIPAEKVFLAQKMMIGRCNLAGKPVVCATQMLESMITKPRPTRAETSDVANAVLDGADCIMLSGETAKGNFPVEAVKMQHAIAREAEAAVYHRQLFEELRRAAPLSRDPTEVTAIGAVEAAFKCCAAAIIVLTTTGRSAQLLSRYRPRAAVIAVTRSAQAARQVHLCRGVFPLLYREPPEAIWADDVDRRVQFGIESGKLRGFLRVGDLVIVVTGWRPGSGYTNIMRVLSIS

Turning to `Nc1cccc(Cn2ncc3cc(S(=O)(=O)c4ccccc4)ccc3c2=O)c1` [Example 141, 2-(3-aminobenzyl)-6-(phenylsulfonyl)phthalazin-1(2H)-one], the Emax at recombinant human PKM2 (setting [1]) worked out at 113%; at recombinant human PKLR, 108%. The results for the EC50 on recombinant human PKM2 (setting [2]) and at recombinant human PKLR were 0.0783 µM and 0.008 µM, respectively.

On to `COc1ccc(S(=O)(=O)c2ccc3c(=O)n(Cc4cccc(N)c4)ncc3c2)cc1` [Example 142, 2-(3-aminobenzyl)-6-((4-methoxyphenyl)sulfonyl)phthalazin-1(2H)-one], for which the Emax was determined as 112% at recombinant human PKM2 (setting [1]) and 108% at recombinant human PKLR. Further, the EC50 at recombinant human PKM2 (setting [2]) turned out to be 0.0258 µM; at recombinant human PKLR, 0.0041 µM.

With `COc1ccc(Cn2ncc3cc(S(=O)(=O)c4ccc(C)cc4)ccc3c2=O)cn1` [Example 150, 2-((6-methoxypyridin-3-yl)methyl)-6-tosylphthalazin-1(2H)-one], the maximum response (Emax) was found to be 90.4% at recombinant human PKM2 (setting [1]) and 85.4% at recombinant human PKLR. Further, the EC50 on recombinant human PKM2 (setting [2]) came to 0.0443 µM; at recombinant human PKLR, 0.0064 µM.

Regarding `O=c1c2ccc(S(=O)(=O)c3cnn(C4CC4)c3)cc2cnn1Cc1cccnc1O` [Example 193, 6-(1-cyclopropyl-1H-pyrazol-4-ylsulfonyl)-2-((2-hydroxypyridin-3-yl)methyl)phthalazin-1(2H)-one], the Emax on recombinant human PKM2 (setting [1]) was found to be 84.9%; at recombinant human PKLR, 111%. The EC50 on recombinant human PKM2 (setting [2]) stood at 0.161 µM; at recombinant human PKLR, 0.0863 µM.

On to `Cn1ccc(Cn2ncc3cc(S(=O)(=O)c4cnn(C5CC5)c4)ccc3c2=O)n1` [Example 194, 6-(1-cyclopropyl-1H-pyrazol-4-ylsulfonyl)-2-((1-methyl-1H-pyrazol-3-yl)methyl)phthalazin-1(2H)-one], for which the Emax stood at 113% on recombinant human PKM2 (setting [1]) and 112% at recombinant human PKLR. Besides, the EC50 at recombinant human PKM2 (setting [2]) came out at 0.0774 µM; on recombinant human PKLR, 0.106 µM.

Regarding `O=c1c2ccc(S(=O)(=O)c3ccc4occc4c3)cc2cnn1Cc1cc[nH]n1` [Example 195, 2-((1H-pyrazol-3-yl)methyl)-6-(benzofuran-5-ylsulfonyl)phthalazin-1(2H)-one], the Emax at recombinant human PKM2 (setting [1]) turned out to be 112%; on recombinant human PKLR, 121%. The values for the EC50 on recombinant human PKM2 (setting [2]) and at recombinant human PKLR were 0.0184 µM and 0.002 µM, respectively.

For the molecule `O=c1c2ccc(S(=O)(=O)c3cnn(C4CC4)c3)cc2cnn1Cc1ccn(C2CC2)n1` [Example 196, 2-((1-cyclopropyl-1H-pyrazol-3-yl)methyl)-6-((1-cyclopropyl-1H-pyrazol-4-yl)sulfonyl)phthalazin-1(2H)-one], the maximal effect (Emax) at recombinant human PKM2 (setting [1]) turned out to be 98.9%; on recombinant human PKLR, 120%. For the same molecule, the EC50 turned out to be 0.0476 µM at recombinant human PKM2 (setting [2]) and 0.017 µM at recombinant human PKLR.

As for `Cn1ccc(Cn2ncc3cc(S(=O)(=O)c4ccc5c(c4)NCCO5)ccc3c2=O)n1` [Example 201, 6-((3,4-dihydro-2H-benzo[b][1,4]oxazin-6-yl)sulfonyl)-2-((1-methyl-1H-pyrazol-3-yl)methyl)phthalazin-1(2H)-one], the Emax was found to be 103% on recombinant human PKM2 (setting [1]) and 140% at recombinant human PKLR. Besides, the results for the EC50 on recombinant human PKM2 (setting [2]) and at recombinant human PKLR were 0.0279 µM and 0.0029 µM, respectively.

For `O=c1c2ccc(S(=O)(=O)c3ccc4c(c3)NCCO4)cc2cnn1Cc1ccn(CCO)n1` [Example 202, 6-((3,4-dihydro-2H-benzo[b][1,4]oxazin-6-yl)sulfonyl)-2-((1-(2-hydroxyethyl)-1H-pyrazol-3-yl)methyl)phthalazin-1(2H)-one], the Emax worked out at 109% at recombinant human PKM2 (setting [1]) and 125% at recombinant human PKLR. Moreover, the EC50 at recombinant human PKM2 (setting [2]) turned out to be 0.0917 µM; at recombinant human PKLR it was 0.0079 µM.

Regarding `O=c1c2ccc(S(=O)(=O)c3ccc4c(c3)CCO4)cc2cnn1Cc1cc[nH]n1` [Example 203, 2-((1H-pyrazol-3-yl)methyl)-6-((2,3-dihydrobenzofuran-5-yl)sulfonyl)phthalazin-1(2H)-one], the Emax was 114% on recombinant human PKM2 (setting [1]) and 123% on recombinant human PKLR. Further, the EC50 at recombinant human PKM2 (setting [2]) was 0.0353 µM; at recombinant human PKLR it was 0.0024 µM.

With `COc1ccc(S(=O)(=O)c2ccc3c(=O)n(Cc4ccn(C5CC5)n4)ncc3c2)cn1` [Example 205, 2-((1-cyclopropyl-1H-pyrazol-3-yl)methyl)-6-((6-methoxypyridin-3-yl)sulfonyl)phthalazin-1(2H)-one], the Emax on recombinant human PKM2 (setting [1]) came to 120%; at recombinant human PKLR, 115%. Besides, the EC50 on recombinant human PKM2 (setting [2]) amounted to 0.0592 µM; on recombinant human PKLR, 0.008 µM.

Regarding `O=c1c2ccc(S(=O)(=O)c3ccc4c(c3)OCCO4)cc2cnn1Cc1ccn(CCO)n1` [Example 206, 6-((2,3-dihydrobenzo[b][1,4]dioxin-6-yl)sulfonyl)-2-((1-(2-hydroxyethyl)-1H-pyrazol-3-yl)methyl)phthalazin-1(2H)-one], the values for the Emax on recombinant human PKM2 (setting [1]) and on recombinant human PKLR were 98.7% and 128%, respectively. In addition, the figures for the EC50 on recombinant human PKM2 (setting [2]) and on recombinant human PKLR were 0.05 µM and 0.0103 µM, respectively.

Regarding `O=c1c2ccc(S(=O)(=O)c3ccc4c(c3)OCCO4)cc2cnn1Cc1cc[nH]n1` [Example 207, 2-((1H-pyrazol-3-yl)methyl)-6-((2,3-dihydrobenzo[b][1,4]dioxin-6-yl)sulfonyl)phthalazine-1(2H)-one], the values for the Emax at recombinant human PKM2 (setting [1]) and on recombinant human PKLR were 99.9% and 123%, respectively. Further, the EC50 on recombinant human PKM2 (setting [2]) worked out at 0.0333 µM; at recombinant human PKLR, 0.0042 µM.

For the molecule `C[C@H]1Cc2cc(S(=O)(=O)c3ccc4c(=O)n(Cc5ccn(C)n5)ncc4c3)ccc2O1` [Example 219, (S)-2-((1-methyl-1H-pyrazol-3-yl)methyl)-6-((2-methyl-2,3-dihydrobenzofuran-5-yl)sulfonyl)phthalazin-1(2H)-one], the Emax on recombinant human PKM2 (setting [1]) came to 106%; at recombinant human PKLR it was 124%. Further, the EC50 at recombinant human PKM2 (setting [2]) worked out at 0.0442 µM; on recombinant human PKLR, 0.0102 µM.

Regarding `O=c1c2ccc(S(=O)(=O)c3ccc4c(c3)NCCO4)cc2cnn1Cc1cc[nH]n1` [Example 221, 2-((1H-pyrazol-3-yl)methyl)-6-((3,4-dihydro-2H-benzo[b][1,4]oxazin-6-yl)sulfonyl)phthalazin-1(2H)-one], the Emax at recombinant human PKM2 (setting [1]) was found to be 105%; on recombinant human PKLR it was 134%. Further, the EC50 on recombinant human PKM2 (setting [2]) was 0.0428 µM; at recombinant human PKLR, 0.0034 µM.

Regarding `O=c1c2ccc(S(=O)(=O)c3ccc4occc4n3)cc2cnn1Cc1cc[nH]n1` [Example 223, 2-((1H-pyrazol-3-yl)methyl)-6-(furo[3,2-b]pyridin-5-ylsulfonyl)phthalazin-1(2H)-one], the Emax on recombinant human PKM2 (setting [1]) came out at 107%; at recombinant human PKLR it was 132%. Besides, the results for the EC50 on recombinant human PKM2 (setting [2]) and on recombinant human PKLR were 0.045 µM and 0.0049 µM, respectively.

Take `O=c1c2ccc(S(=O)(=O)c3cnc4occc4c3)cc2cnn1Cc1cc[nH]n1` [Example 225, 2-((1H-pyrazol-3-yl)methyl)-6-(furo[2,3-b]pyridin-5-ylsulfonyl)phthalazin-1(2H)-one]: the Emax was found to be 114% at recombinant human PKM2 (setting [1]) and 117% at recombinant human PKLR. The EC50 at recombinant human PKM2 (setting [2]) came to 0.0503 µM; at recombinant human PKLR, 0.0086 µM.

As for `O=c1c2ccc(S(=O)(=O)c3cnn(C4CC4)c3)cc2cnn1Cc1cc[nH]n1` [Example 228, 2-((1H-pyrazol-3-yl)methyl)-6-((1-cyclopropyl-1H-pyrazol-4-yl)sulfonyl)phthalazin-1(2H)-one], the EC50 on recombinant human PKM2 (data from repeat experiments (*)) is 0.0415 µM; on recombinant human PKM2 (setting [2]) it was 0.0404 µM; on recombinant human PKLR, 0.0212 µM. Moreover, the Emax on recombinant human PKM2 (line of the repeat experiment (EC50 marked *)) was 112%; on recombinant human PKM2 (setting [1]), 116%; on recombinant human PKLR, 119%.

For the molecule `Cc1cccc(Cn2ncc3cc(S(=O)(=O)c4cn[nH]c4)ccc3c2=O)n1` [Example 238, 6-((1H-pyrazol-4-yl)sulfonyl)-2-((6-methylpyridin-2-yl)methyl)phthalazin-1(2H)-one], the results for the Emax at recombinant human PKM2 (setting [1]) and on recombinant human PKLR were 108% and 127%, respectively. Also, the EC50 on recombinant human PKM2 (setting [2]) stood at 0.125 µM; at recombinant human PKLR it was 0.0144 µM.

In the case of `Cc1cccc(Cn2ncc3cc(S(=O)(=O)c4cc[nH]n4)ccc3c2=O)n1` [Example 239, 6-((1H-pyrazol-3-yl)sulfonyl)-2-((6-methylpyridin-2-yl)methyl)phthalazin-1(2H)-one], the Emax on recombinant human PKM2 (setting [1]) was 106%; at recombinant human PKLR, 135%. The EC50 on recombinant human PKM2 (setting [2]) is 0.109 µM; on recombinant human PKLR, 0.0248 µM.

On to `Cn1cc(S(=O)(=O)c2ccc3c(=O)n(Cc4cc[nH]n4)ncc3c2)cn1` [Example 240, 2-((1H-pyrazol-3-yl)methyl)-6-((1-methyl-1H-pyrazol-4-yl)sulfonyl)phthalazin-1(2H)-one], for which the results for the Emax at recombinant human PKM2 (setting [1]) and at recombinant human PKLR were 107% and 125%, respectively. Also, the EC50 at recombinant human PKM2 (setting [2]) came out at 0.159 µM; at recombinant human PKLR it was 0.0303 µM.

What is called Emax is the greatest response seen or fitted, relative to the assay's reference. As a reminder, the EC50 is the concentration giving half of the maximal effect.
